A word on the mass density: it is mass per unit of volume.

From the NIST ThermoML archive (doi:10.1016/j.fluid.2012.06.002) come the findings set out here.

Numbers after ± are expanded uncertainties.

This series can be described thus: wn = mass fraction of the nth substance listed. The settings on record: 101 kPa, Liquid, pycnometer.

In the case of `NC(N)=O.O=P(O)(O)O` [urea phosphate] + O, the mass density reads like this: (298.15 K, w1 = 0.538) 1260 ± 1 kg/m3; (328.15 K, w1 = 0.734) 1359 ± 2 kg/m3.
In the case of `N.O=P(O)(O)O` [ammonium dihydrogen phosphate] + O, the mass density reads like this: (298.15 K, w1 = 0.293) 1164 ± 1 kg/m3; (328.15 K, w1 = 0.436) 1258 ± 1 kg/m3.
